According to US9913843B2, “Protein kinase C inhibitors and uses thereof” (Rigel Pharmaceuticals, Inc., priority 2012, dated 2018):
Like-named read-outs stand apart in the source and are kept apart here.

Test system: PKC mediated IL-2 production in human primary T cells
Assay: IL-2 ELISA, human primary T cell, anti CD3+CD28+ (whole cell functional assay for PKC mediated IL-2 production)
Type: cell-based
Outline: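 Primary human T cells (PBMC-derived, expanded on plate-bound anti-CD3/CD28 with IL-2, then IL-2-washed) were pre-incubated 1 h at 37 °C with compound, then stimulated on 1 μg/ml anti-CD3 plus 5 μg/ml anti-CD28. After 24 h at 37 °C, secreted IL-2 was measured by ELISA; counter assay used 0.5 ng/ml PMA plus 0.1 μM ionomycin (final).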

[1] = 24 h, human primary T cells stimulated with anti-CD3 + anti-CD28, IL-2 by ELISA, read-out: IC50 for blocking IL-2 production
[2] = human primary T cells stimulated with anti-CD3 + anti-CD28, 24 h, IL-2 by ELISA, 8 pt, read-out: IL2 ELISA, Human primary T cell, anti-CD3 + CD28, 8 pt (IC50)

Row | Compound | IC50 [1] | IC50 [2]
1 | CC(O)COc1ccc(Nc2ncc(C#N)c(NC[C@@H]3CCCN4CCCC[C@H]34)n2)cc1C#N (stereo partly drawn) [Compound 144, 2-((3-cyano-4-(2-hydroxypropoxy)phenyl)amino)-4-((((1S,9aR)-octahydro-2H-quinolizin-1-yl)methyl)amino)pyrimidine-5-carbonitrile] | < 30 µM | 12.4 µM
2 | C[C@H](O)COc1cc(F)c(Nc2ncc(F)c(NC[C@@H]3CCCN4CCCC[C@H]34)n2)cc1-n1nnn(C)c1=O [Compound 149, 1-(4-fluoro-5-((5-fluoro-4-((((1S,9aR)-octahydro-2H-quinolizin-1-yl)methyl)amino)pyrimidin-2-yl)amino)-2-((S)-2-hydroxypropoxy)phenyl)-4-methyl-1,4-dihydro-5H-tetrazol-5-one] | < 30 µM | 0.266 µM
3 | COc1cnc(Nc2cc(C#N)c(C3CC3)cc2F)nc1NC[C@@H]1CCCN2CCCC[C@H]12 [Compound 82, 5-(4-(((1S,9aR)-octahydro-1H-quinolizin-1-yl)methylamino)-5-methoxypyrimidin-2-ylamino)-2-cyclopropyl-4-fluorobenzonitrile] | < 30 µM | 1.31 µM
4 | COc1cc(Nc2ncc(C#N)c(NC[C@@H]3CCCN4CCCC[C@H]34)n2)cc(-n2nnnc2C)c1 [Compound 115, 4-(((1S,9aR)-octahydro-1H-quinolizin-1-yl)methylamino)-2-(3-methoxy-5-(5-methyl-1H-tetrazol-1-yl)phenylamino)pyrimidine-5-carbonitrile] | < 30 µM | 0.0225 µM
5 | COc1cc(Nc2ncc(Cl)c(NC[C@@H]3CCCN4CCCC[C@H]34)n2)cc(OC)c1 [Compound 43, 5-chloro-N4-(((1S,9aR)-octahydro-1H-quinolizin-1-yl)methyl)-N2-(3,5-dimethoxyphenyl)pyrimidine-2,4-diamine] | < 30 µM | 0.412 µM
6 | Cc1cnc(Nc2cccc(C#N)c2)nc1NC[C@@H]1CCCN2CCCC[C@H]12 [Compound 66, 3-(4-(((1S,9aR)-octahydro-1H-quinolizin-1-yl)methylamino)-5-methylpyrimidin-2-ylamino)benzonitrile] | < 30 µM | 1.48 µM
7 | N#Cc1cnc(Nc2ccc(OCCO)c(-n3cnnn3)c2)nc1NC[C@@H]1CCCN2CCCC[C@H]12 [Compound 140, 2-((4-(2-hydroxyethoxy)-3-(1H-tetrazol-1-yl)phenyl)amino)-4-((((1S,9aR)-octahydro-2H-quinolizin-1-yl)methyl)amino)pyrimidine-5-carbonitrile] | < 30 µM | 0.0276 µM
8 | COc1cnc(Nc2cc(-n3nnnc3C)ccc2F)nc1NC[C@@H]1CCCN2CCCC[C@H]12 [Compound 76, N2-(2-fluoro-5-(5-methyl-1H-tetrazol-1-yl)phenyl)-N4-(((1S,9aR)-octahydro-1H-quinolizin-1-yl)methyl)-5-methoxypyrimidine-2,4-diamine] | < 30 µM | 6.45 µM
9 | Cn1nnn(-c2cc(Nc3ncc(C#N)c(NC[C@@H]4CCCN5CCCC[C@H]45)n3)c(F)cc2C2CC2)c1=O [Compound 99, 4-(((1S,9aR)-octahydro-1H-quinolizin-1-yl)methylamino)-2-(4-cyclopropyl-2-fluoro-5-(4,5-dihydro-4-methyl-5-oxotetrazol-1-yl)phenylamino)pyrimidine-5-carbonitrile] | < 30 µM | 0.0509 µM
10 | Cc1ccc(Nc2ncc(Cl)c(NC[C@@H]3CCCN4CCCC[C@H]34)n2)cc1C#N [Compound 40, 5-(4-(((1S,9aR)-octahydro-1H-quinolizin-1-yl)methylamino)-5-chloropyrimidin-2-ylamino)-2-methylbenzonitrile] | < 30 µM | 0.267 µM
11 | COc1cc(Nc2ncc(C(F)(F)F)c(NC[C@@H]3CCCN4CCCC[C@H]34)n2)cc(-n2nnnc2C)c1 [Compound 106, 5-(trifluoromethyl)-N4-(((1S,9aR)-octahydro-1H-quinolizin-1-yl)methyl)-N2-(3-methoxy-5-(5-methyl-1H-tetrazol-1-yl)phenyl)pyrimidine-2,4-diamine] | < 30 µM | 21.5 µM
12 | O=c1[nH]c2cc(Nc3nccc(NC[C@@H]4CCCN5CCCC[C@H]45)n3)ccc2o1 [Compound 58, 5-(4-(((1S,9aR)-octahydro-1H-quinolizin-1-yl)methylamino)pyrimidin-2-ylamino)benzo[d]oxazol-2(3H)-one] | < 30 µM | 18.6 µM
13 | Cn1nnn(-c2cc(Nc3ncc(F)c(NC[C@@H]4CCCN5CCCC[C@H]45)n3)c(F)cc2OC(C)(C)CO)c1=O [Compound 148, 1-(4-fluoro-5-((5-fluoro-4-((((1S,9aR)-octahydro-2H-quinolizin-1-yl)methyl)amino)pyrimidin-2-yl)amino)-2-((1-hydroxy-2-methylpropan-2-yl)oxy)phenyl)-4-methyl-1,4-dihydro-5H-tetrazol-5-one] | < 30 µM | 1.59 µM
14 | COc1ccc(Nc2ncc(C)c(NC[C@@H]3CCCN4CCCC[C@H]34)n2)cc1-n1nnnc1C [Compound 64, N4-(((1S,9aR)-octahydro-1H-quinolizin-1-yl)methyl)-N2-(4-methoxy-3-(5-methyl-1H-tetrazol-1-yl)phenyl)-5-methylpyrimidine-2,4-diamine] | < 30 µM | 0.459 µM
15 | COc1cc(Nc2nccc(NC[C@@H]3CCCN4CCCC[C@H]34)n2)cc(OC)c1 [Compound 57, N4-(((1S,9aR)-octahydro-1H-quinolizin-1-yl)methyl)-N2-(3,5-dimethoxyphenyl)pyrimidine-2,4-diamine] | < 30 µM | 3.59 µM
16 | COc1ccc(Nc2ncc(OC)c(NC[C@@H]3CCCN4CCCC[C@H]34)n2)cc1-n1nnnc1C [Compound 77, N4-(((1S,9aR)-octahydro-1H-quinolizin-1-yl)methyl)-5-methoxy-N2-(4-methoxy-3-(5-methyl-1H-tetrazol-1-yl)phenyl)pyrimidine-2,4-diamine] | < 30 µM | 2.42 µM
17 | N#Cc1cc(Nc2nccc(NC[C@@H]3CCCN4CCCC[C@H]34)n2)ccc1C1CC1 [Compound 55, 5-(4-(((1S,9aR)-octahydro-1H-quinolizin-1-yl)methylamino)pyrimidin-2-ylamino)-2-cyclopropylbenzonitrile] | < 30 µM | 0.607 µM
18 | Cc1ccc(Nc2ncc(C)c(NC[C@@H]3CCCN4CCCC[C@H]34)n2)cc1-n1cnnn1 [Compound 60, N4-(((1S,9aR)-octahydro-1H-quinolizin-1-yl)methyl)-5-methyl-N2-(4-methyl-3-(1H-tetrazol-1-yl)phenyl)pyrimidine-2,4-diamine] | < 30 µM | 1.36 µM
19 | CC(C)N1C(=O)C(C)(C)Oc2cc(Nc3ncc(F)c(NC[C@@H]4CCCN5CCCC[C@H]45)n3)ccc21 [Compound 16, 7-(4-(((1S,9aR)-octahydro-1H-quinolizin-1-yl)methylamino)-5-fluoropyrimidin-2-ylamino)-4-isopropyl-2,2-dimethyl-2H-benzo[b][1,4]oxazin-3(4H)-one] | < 30 µM | 0.703 µM
20 | CCN1C(=O)C(F)(F)Oc2cc(Nc3ncc(F)c(NC[C@@H]4CCCN5CCCC[C@H]45)n3)cnc21 [Compound 27, 7-(4-(((1S,9aR)-octahydro-1H-quinolizin-1-yl)methylamino)-5-fluoropyrimidin-2-ylamino)-4-ethyl-2,2-difluoro-2H-pyrido[3,2-b][1,4]oxazin-3(4H)-one] | < 30 µM | 0.652 µM
